Results from US12673944B2, “Compounds having inhibitory activity against glucosylceramide synthase or pharmaceutically acceptable salt thereof, processes for preparing the same, and pharmaceutical compositions comprising the same” (YUHAN CORPORATION, priority 2019, dated 2026).

Legend:
[1] = target: T1, glucosylceramide synthase (GCS) (Homo sapiens, UniProt Q16739); experiment: GCS enzyme inhibition assay (A549 cell lysate, NBD C6-ceramide, HPLC fluorescence); type: biochemical; details: inhibitory activity against GCS, 37° C., 90 minutes
T1 construct: The obtained supernatant was used; host or cells: A549 cells (lysate supernatant after sonication)
T1 sequence (Q16739 1-394): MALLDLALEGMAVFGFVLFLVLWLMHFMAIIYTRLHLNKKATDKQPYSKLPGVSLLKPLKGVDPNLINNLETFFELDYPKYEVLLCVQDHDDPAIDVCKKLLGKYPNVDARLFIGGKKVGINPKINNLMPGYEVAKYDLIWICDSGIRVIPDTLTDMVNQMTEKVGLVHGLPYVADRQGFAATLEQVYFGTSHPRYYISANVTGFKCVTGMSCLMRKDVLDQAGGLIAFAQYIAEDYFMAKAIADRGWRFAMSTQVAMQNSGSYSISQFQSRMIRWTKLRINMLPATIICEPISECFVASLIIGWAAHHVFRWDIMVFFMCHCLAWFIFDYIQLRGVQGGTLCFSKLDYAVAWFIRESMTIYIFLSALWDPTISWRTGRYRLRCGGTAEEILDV
In short: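 A549 cell lysate (50 mM HEPES pH 7.3) served as GCS source; reactions ran 90 min at 37° C, were stopped with chloroform/methanol and lipids extracted. Activity taken as GlcCer/(Cer+GlcCer) peak area, normalised between DMSO and ibiglustat controls.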

[2] = test system: GM1 production in Jurkat cells; experiment: cells; type: cell-based; details: Homo sapiens, Jurkat, 72 h

Structure (SMILES) | IC50 [1] [nM] | IC50 [2] [nM]
O=C(NC1CCSc2cc(-c3cccc(C(F)(F)F)c3)ccc21)O[C@@H]1CN2CCC1CC2 (stereo partly drawn) [Example 319, (S)-quinuclidin-3-yl (7-(3-(trifluoromethyl)phenyl)thiochroman-4-yl)carbamate] | 1.07 | 6.7
O=C(NC1CCSc2cc(-c3cccc(OC(F)(F)F)c3)ccc21)O[C@@H]1CN2CCC1CC2 (stereo partly drawn) [Example 320, (S)-quinuclidin-3-yl (7-(3-(trifluoromethoxy)phenyl)thiochroman-4-yl)carbamate] | 1.5 | 13.8
COCOc1cccc(-c2ccc3c(c2)SCCC3NC(=O)O[C@@H]2CN3CCC2CC3)c1 (stereo partly drawn) [Example 321, (S)-quinuclidin-3-yl (7-(3-(methoxymethoxy)phenyl)thiochroman-4-yl)carbamate] | 1 | 3.64
CC(C)(C)c1cccc(-c2ccc3c(c2)SCCC3NC(=O)O[C@@H]2CN3CCC2CC3)c1 (stereo partly drawn) [Example 322, (S)-quinuclidin-3-yl (7-(3-(tert-butyl)phenyl)thiochroman-4-yl)carbamate] | 1.78 | 5.88
O=C(NC1CCSc2cc(-c3cc(Cl)ccc3Cl)ccc21)O[C@@H]1CN2CCC1CC2 (stereo partly drawn) [Example 323, (S)-quinuclidin-3-yl (7-(2,5-dichlorophenyl)thiochroman-4-yl)carbamate] | 0.63 | 26.3
CCOc1cccc(-c2ccc3c(c2)SCCC3NC(=O)O[C@@H]2CN3CCC2CC3)c1 (stereo partly drawn) [Example 324, (S)-quinuclidin-3-yl (7-(3-ethoxyphenyl)thiochroman-4-yl)carbamate] | 1.25 | 14.4
CSc1cccc(-c2ccc3c(c2)SCCC3NC(=O)O[C@@H]2CN3CCC2CC3)c1 (stereo partly drawn) [Example 325, (S)-quinuclidin-3-yl (7-(3-(methylthio)phenyl)thiochroman-4-yl)carbamate] | 0.58 | 6.13
CN(C)c1cccc(-c2ccc3c(c2)SCCC3NC(=O)O[C@@H]2CN3CCC2CC3)c1 (stereo partly drawn) [Example 326, (S)-quinuclidin-3-yl (7-(3-(dimethylamino)phenyl)thiochroman-4-yl)carbamate] | 0.64 | 10.3
O=C(NC1CCSc2cc(-c3ccc4c(c3)OC(F)(F)O4)ccc21)O[C@@H]1CN2CCC1CC2 (stereo partly drawn) [Example 327, (S)-quinuclidin-3-yl (7-(2,2-difluorobenzo[d][1,3]dioxol-5-yl)thiochroman-4-yl)carbamate] | 2.7 | 37.6
O=C(NC1CCSc2cc(-c3coc4ccccc34)ccc21)O[C@@H]1CN2CCC1CC2 (stereo partly drawn) [Example 328, (S)-quinuclidin-3-yl (7-(benzofuran-3-yl)thiochroman-4-yl)carbamate] | 1.18 | 13.8
CC1(C)CSc2ccc(-c3ccc(C(F)(F)F)cc3)cc2C1NC(=O)O[C@@H]1CN2CCC1CC2 (stereo partly drawn) [Example 329, (S)-quinuclidin-3-yl (3,3-dimethyl-6-(4-(trifluoromethyl)phenyl)thiochroman-4-yl)carbamate] | 14.9 | 33.8
CC1(C)COc2cc(-c3cccc(F)c3)c(F)cc2C1NC(=O)O[C@@H]1CN2CCC1CC2 (stereo partly drawn) [Example 330, (S)-quinuclidin-3-yl (6-fluoro-7-(3-fluorophenyl)-3,3-dimethylchroman-4-yl)carbamate] | 0.28 | 1.8
CC1(C)COc2cc(-c3ccc(F)cc3)c(F)cc2C1NC(=O)O[C@@H]1CN2CCC1CC2 (stereo partly drawn) [Example 331, (S)-quinuclidin-3-yl (6-fluoro-7-(4-fluorophenyl)-3,3-dimethylchroman-4-yl)carbamate] | 0.36 | 3.7
CC1(C)COc2cc(-c3cccc(Cl)c3)c(F)cc2C1NC(=O)O[C@@H]1CN2CCC1CC2 (stereo partly drawn) [Example 332, (S)-quinuclidin-3-yl (6-fluoro-7-(3-chlorophenyl)-3,3-dimethylchroman-4-yl)carbamate] | 0.39 | 0.9
CCc1cccc(-c2cc3c(cc2F)C(NC(=O)O[C@@H]2CN4CCC2CC4)C(C)(C)CO3)c1 (stereo partly drawn) [Example 333, (S)-quinuclidin-3-yl (7-(3-ethylphenyl)-6-fluoro-3,3-dimethylchroman-4-yl)carbamate] | 0.45 | 0.8
CCc1ccc(-c2cc3c(cc2F)C(NC(=O)O[C@@H]2CN4CCC2CC4)C(C)(C)CO3)cc1 (stereo partly drawn) [Example 334, (S)-quinuclidin-3-yl (7-(4-ethylphenyl)-6-fluoro-3,3-dimethylchroman-4-yl)carbamate] | 0.33 | 0.4

Structure (SMILES) | IC50 [1] [nM] | IC50 [2] [nM]
COc1cccc(-c2cc3c(cc2F)C(NC(=O)O[C@@H]2CN4CCC2CC4)C(C)(C)CO3)c1 (stereo partly drawn) [Example 335, (S)-quinuclidin-3-yl (6-fluoro-7-(3-methoxyphenyl)-3,3-dimethylchroman-4-yl)carbamate] | 0.35 | 2
COc1ccc(-c2cc3c(cc2F)C(NC(=O)O[C@@H]2CN4CCC2CC4)C(C)(C)CO3)cc1 (stereo partly drawn) [Example 336, (S)-quinuclidin-3-yl (6-fluoro-7-(4-methoxyphenyl)-3,3-dimethylchroman-4-yl)carbamate] | 0.27 | 3.5
CCOc1ccc(-c2cc3c(cc2F)C(NC(=O)O[C@@H]2CN4CCC2CC4)C(C)(C)CO3)cc1 (stereo partly drawn) [Example 337, (S)-quinuclidin-3-yl (7-(4-ethoxyphenyl)-6-fluoro-3,3-dimethylchroman-4-yl)carbamate] | 0.23 | 1.2
CC1(C)COc2cc(-c3ccsc3)c(F)cc2C1NC(=O)O[C@@H]1CN2CCC1CC2 (stereo partly drawn) [Example 338, (S)-quinuclidin-3-yl (6-fluoro-3,3-dimethyl-7-(thiophen-3-yl)chroman-4-yl)carbamate] | 0.19 | 3.3
CC(C)c1cccc(-c2cc3c(cc2F)C(NC(=O)O[C@@H]2CN4CCC2CC4)C(C)(C)CO3)c1 (stereo partly drawn) [Example 339, (S)-quinuclidin-3-yl (6-fluoro-7-(3-isopropylphenyl)-3,3-dimethylchroman-4-yl)carbamate] | 0.61 | 0.2
COc1ccc(Cl)c(-c2cc3c(cc2F)C(NC(=O)O[C@@H]2CN4CCC2CC4)C(C)(C)CO3)c1 (stereo partly drawn) [Example 340, (S)-quinuclidin-3-yl (7-(2-chloro-5-methoxyphenyl)-6-fluoro-3,3-dimethylchroman-4-yl)carbamate] | 0.48 | 2.4
COc1ccc(-c2cc3c(cc2F)C(NC(=O)O[C@@H]2CN4CCC2CC4)C(C)(C)CO3)c(F)c1 (stereo partly drawn) [Example 341, (S)-quinuclidin-3-yl (6-fluoro-7-(2-fluoro-4-methoxyphenyl)-3,3-dimethylchroman-4-yl)carbamate] | 0.17 | 4.1
COc1ccc(-c2cc3c(cc2F)C(NC(=O)O[C@@H]2CN4CCC2CC4)C(C)(C)CO3)c(C)c1 (stereo partly drawn) [Example 342, (S)-quinuclidin-3-yl (6-fluoro-7-(4-methoxy-2-methylphenyl)-3,3-dimethylchroman-4-yl)carbamate] | 0.45 | 3.5
CCCCc1ccc(-c2cc3c(cc2F)C(NC(=O)O[C@@H]2CN4CCC2CC4)C(C)(C)CO3)cc1 (stereo partly drawn) [Example 343, (S)-quinuclidin-3-yl (7-(4-butylphenyl)-6-fluoro-3,3-dimethylchroman-4-yl)carbamate] | 0.12 | 0.1
CC(C)Oc1ccc(-c2cc3c(cc2F)C(NC(=O)O[C@@H]2CN4CCC2CC4)C(C)(C)CO3)cc1Cl (stereo partly drawn) [Example 344, (S)-quinuclidin-3-yl (7-(3-chloro-4-isopropoxyphenyl)-6-fluoro-3,3-dimethylchroman-4-yl)carbamate] | 0.58 | 7.3
CC(C)(C)c1ccc(-c2cc3c(cc2F)C(NC(=O)O[C@@H]2CN4CCC2CC4)C(C)(C)CO3)cc1 (stereo partly drawn) [Example 345, (S)-quinuclidin-3-yl (7-(4-(tert-butyl)phenyl)-6-fluoro-3,3-dimethylchroman-4-yl)carbamate] | 0.37 | 1.6
COc1c(C)cc(-c2cc3c(cc2F)C(NC(=O)O[C@@H]2CN4CCC2CC4)C(C)(C)CO3)cc1C (stereo partly drawn) [Example 346, (S)-quinuclidin-3-yl (6-fluoro-7-(4-methoxy-3,5-dimethylphenyl)-3,3-dimethylchroman-4-yl)carbamate] | 1.18 | 9.5
CC(C)COc1ccc(-c2cc3c(cc2F)C(NC(=O)O[C@@H]2CN4CCC2CC4)C(C)(C)CO3)cc1 (stereo partly drawn) [Example 347, (S)-quinuclidin-3-yl (6-fluoro-7-(4-isobutoxyphenyl)-3,3-dimethylchroman-4-yl)carbamate] | 0.23 | 0.02
CC(C)Oc1ccc(-c2cc3c(cc2F)C(NC(=O)O[C@@H]2CN4CCC2CC4)C(C)(C)CO3)cn1 (stereo partly drawn) [Example 348, (S)-quinuclidin-3-yl (6-fluoro-7-(6-isopropoxypyridin-3-yl)-3,3-dimethylchroman-4-yl)carbamate] | 0.24 | 0.5
COc1cc2c(cc1-c1cccc(F)c1)OCC(C)(C)C2NC(=O)O[C@@H]1CN2CCC1CC2 (stereo partly drawn) [Example 349, (S)-quinuclidin-3-yl (7-(3-fluorophenyl)-6-methoxy-3,3-dimethylchroman-4-yl)carbamate] | 0.32 | 3.2
COc1cc2c(cc1-c1ccc(F)cc1)OCC(C)(C)C2NC(=O)O[C@@H]1CN2CCC1CC2 (stereo partly drawn) [Example 350, (S)-quinuclidin-3-yl (7-(4-fluorophenyl)-6-methoxy-3,3-dimethylchroman-4-yl)carbamate] | 0.47 | 7.5
